Measured values reported in PubChem BioAssay AID463204 (Broad Institute, 2010).
The source made the active and inactive calls.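 Rule for the calls: active = AC50 no more than ten times the top concentration tested, that is within one log above it; inconclusive = flat curve fit with activity between 30% and 70%, or invalid poor fit; inactive = AC50 beyond ten times the top tested dose.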

These compounds were tested on S. cerevisiae Mot1-301 ts growth rescue, BacTiter-Glo ATP luminescence (assay: growth rescue of Mot1-301 ts yeast, confirmation, SUMOylation pathway inhibitor project, whole organism, S. cerevisiae, Mot1-301 ts mutant, luminescence, dose retest (AID 463204);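 note: growth at restrictive 38.5 degrees C of Mot1-301 OY566 strain; actives raise luminescence by restoring growth of the ts mutant at high temperature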).

| SMILES | AC50 |
| --- | --- |
| CCOC(=O)c1c(C)n(C)c2cc(-c3ccc(C)cc3)c(O)cc12 | > 42 µM (inactive) |
| O=C1N=C(N2CCN(c3ccccc3)CC2)SC1Cc1ccccc1 (configuration not stated) | > 42 µM (inactive) |
| Cc1ccc(-c2csc(NC(=O)CSc3nc(C)cs3)n2)cc1 | > 42 µM (inactive) |
| Cc1ccc(Oc2ccc(OCC(=O)Nc3ccncc3)cc2)cc1 | 23.5 µM |
| CC(=O)OCC(OC(C)=O)C(OC(C)=O)C(OC(C)=O)C(=O)Nc1ccccc1 (configuration not stated) | > 42 µM (inactive) |
| O=C(NC1CCCCC1)C(c1ccncc1)N(Cc1ccc2c(c1)OCO2)C(=O)C(F)(F)F (configuration not stated) | > 42 µM (inactive) |
| O=C(CCSc1ccccc1)Nc1ncccn1 | > 42 µM (inactive) |
| COc1ccc(NC2CC(=O)N(C(C)C)C2=O)cc1 (configuration not stated) | > 42 µM (inactive) |
| Cc1cc(S(=O)(=O)N2CCCC(N3CCOCC3)C2)c(C)cc1Cl (configuration not stated) | > 42 µM (inactive) |
| O=C(O)CN(c1ccccn1)S(=O)(=O)c1ccc(Cl)cc1 | > 42 µM (inactive) |
| Cc1cccc(CS(=O)(=O)Cc2ccc(C(=O)NCC3CCCO3)o2)c1 (configuration not stated) | > 42 µM (inactive) |
| CC(=O)c1cccc(N2C(=NC(=O)C3CCCCC3)SC3CS(=O)(=O)CC32)c1 (configuration not stated) | > 42 µM (inactive) |
| COc1ccc2oc(=O)c(C(=O)NCc3ccco3)cc2c1 | > 42 µM (inactive) |
| CC(C)(C)c1cc(NCCCn2ccnc2)n2ncc(-c3ccc(Cl)cc3)c2n1 | 5.57 µM |
| COc1ccc(CCNC(=O)Cn2nnc(-c3ccc(N4CCOCC4)cc3)n2)cc1OC | > 42 µM (inactive) |
| COCCCn1c2nc3ccccc3nc2c2c(=O)n(Cc3ccc(Cl)cc3)cnc21 | > 42 µM (inactive) |
| COc1ccc(NC(=O)CCC(=O)Nc2nnc(C(F)(F)F)s2)c(OC)c1 | > 42 µM (inactive) |
| CCN(CC)c1ccc(C=C2C(=O)OC(c3ccccc3)OC2=O)cc1 (configuration not stated) | > 42 µM (inactive) |
| O=C(COc1ccccc1)NCCS(=O)(=O)N1CCN(c2ccccc2)CC1 | > 42 µM (inactive) |
| COc1cc2c(cc1OC)CN(C(=O)Cc1c(F)cccc1Cl)CC2 | > 42 µM (inactive) |
| C/C(CC(=O)NC1CCCCC1)=N\NC(=O)Cc1ccc(-c2ccccc2)cc1 | > 42 µM (inactive) |
| O=C(N/N=C/c1ccc(Cl)s1)c1ccccc1[N+](=O)[O-] | > 42 µM (inactive) |
| O=C(CSc1ncccc1C(=O)O)NC1CCCCC1 | > 42 µM (inactive) |
| [N-]=[N+]=NCCN1CCC(O)CCC1=O (configuration not stated) | > 42 µM (inactive) |
| CN(c1ccccc1C(=O)N1CCN(Cc2ccc3c(c2)OCO3)CC1)S(C)(=O)=O | > 42 µM (inactive) |

| SMILES | AC50 |
| --- | --- |
| O=C(COC(=O)COc1ccccc1Cl)Nc1ccccc1OC(F)F | > 42 µM (inactive) |
| COc1cccc(Nc2nc(C)nc3c2oc2ccccc23)c1 | > 42 µM (inactive) |
| COCCCNCC(O)COc1cccc2[nH]c(C)cc12 (configuration not stated) | > 42 µM (inactive) |
| CC(=O)c1ccc(NC(=O)CSc2nnc(-c3ccco3)o2)cc1 | > 42 µM (inactive) |
| O=C(Nc1ccc(Cl)cc1)N1CCC(c2nc(-c3ccc(F)cc3)no2)CC1 | > 42 µM (inactive) |
| CCOC(=O)CSc1cc(C)nc2ccc(OC)cc12 | > 42 µM (inactive) |
| COCCn1c(SCC(=O)Nc2nc3ccccc3s2)nnc1-c1ccoc1C | > 42 µM (inactive) |
| Nc1ccc(C2(c3ccc(N)cc3)OC(=O)c3ccccc32)cc1 | > 42 µM (inactive) |
| COc1ccc(NC(=O)Nc2ccccc2C(=O)N2CCCC2)cc1 | > 42 µM (inactive) |
| Cn1c(=O)c2c(ncn2CC(=O)OCC(=O)Nc2ccc(Cl)cc2)n(C)c1=O | > 42 µM (inactive) |
| S=C(NCCc1ccccc1)Nc1ccccc1Cl | > 42 µM (inactive) |
| NC(=O)c1nsc(C(=O)N(Cc2ccc(F)cc2)C(C(=O)NC2CCCC2)c2ccco2)c1N (configuration not stated) | > 42 µM (inactive) |
| O=C(CC1(CC2=NS(=O)(=O)c3ccccc3N2)CCCC1)NCCc1ccccc1 | > 42 µM (inactive) |
| Cc1ccc(CN(C)C(=O)c2ccc3c(c2)NC(=O)CS3)o1 | > 42 µM (inactive) |
| Cc1ccc(NC(=O)N[C@H](C(=O)O)C(C)C)c(C)c1 | > 42 µM (inactive) |
| O=C(CCl)N(Cc1cc(=O)[nH]c2ccccc12)c1ccccc1 | > 42 µM (inactive) |
| CS(=O)(=O)NCc1ccc(C(=O)NC2CCCCC2)cc1 | > 42 µM (inactive) |
| CC(=O)Oc1cccc(N2C(=O)c3ccc(C(=O)Nc4c[nH]c(=O)[nH]c4=O)cc3C2=O)c1 | > 42 µM (inactive) |
| COc1ccc(C2=NOC(Cn3nc(C(=O)NCc4cccs4)cc3-c3ccccc3)C2)cc1 (configuration not stated) | > 42 µM (inactive) |
| N#CCC(=O)N/N=C/c1ccc(OS(=O)(=O)c2ccccc2)cc1 | > 42 µM (inactive) |
| Cc1ccc(CNC(=O)c2ccc(N3CCC4(CC3)CC(c3ccccc3)=NO4)c(NC(=O)c3cccc(C)c3)c2)cc1 | > 42 µM (inactive) |
| O=C(COC(=O)[C@@H]1CC(O)CN1S(=O)(=O)c1ccccc1[N+](=O)[O-])Nc1ccc2ccccc2c1 (some centres not stated) | > 42 µM (inactive) |
| COc1ccc(OC)c(NC(=O)CN(C)S(=O)(=O)c2ccc(Cl)cc2)c1 | > 42 µM (inactive) |
| CCOc1ccc(N(C(=O)C2CCCO2)C2C=CS(=O)(=O)C2)cc1 (configuration not stated) | > 42 µM (inactive) |
| O=c1nc(-c2ccccc2)cn[nH]1 | > 42 µM (inactive) |

| SMILES | AC50 |
| --- | --- |
| CC1CC(C)(C)N2C(=O)C3(Nc4ccccc4S3)c3cccc1c32 (configuration not stated) | 3.15 µM |
| COc1ccc(C2=NN(C(=S)Nc3ccccc3)C(c3ccccc3)C2)cc1 (configuration not stated) | > 42 µM (inactive) |
| O=C(Nc1ccccc1N1CCN(c2ccccc2)CC1)c1cccc(F)c1 | > 42 µM (inactive) |
| CCOC(=O)N1CCN(S(=O)(=O)c2ccc(Br)s2)CC1 | > 42 µM (inactive) |
| CC(=O)c1ccc(N2CCN(CC(=O)Nc3cc(C)on3)CC2)cc1 | > 42 µM (inactive) |
| CNC(=O)Nc1cc(NC(=O)NC)cc(C(F)(F)F)c1 | > 42 µM (inactive) |
| NS(=O)(=O)c1ccc(CCNC(=O)CN2CCN(c3ccc(F)cc3)CC2)cc1 | > 42 µM (inactive) |
| CC1(C)Oc2ccc3ccc(=O)oc3c2/C(=C/Nc2ccc(O)cc2)C1=O | > 42 µM (inactive) |
| CN(C)CCNC(=O)c1onc(CSc2ccc(F)c(F)c2)c1C(=O)NCCN(C)C | > 42 µM (inactive) |
| CCN1C(=O)c2cccc3c(S(=O)(=O)Nc4ccc(OC)cc4OC)ccc1c23 | > 42 µM (inactive) |
| CN(C)c1ccc(C(=O)N2CCCC(CCC(=O)N3CCN(c4ccccn4)CC3)C2)cc1 (configuration not stated) | > 42 µM (inactive) |
| CCCCc1nnc(NC(=O)CSc2nc(O)c(-c3ccccc3)c(=O)[nH]2)s1 | > 42 µM (inactive) |
| CCn1c(SCC(=O)N/N=C/c2ccccc2OCC(=O)O)nnc1-c1ccc(C(C)(C)C)cc1 | 32.7 µM |
| CCN1CCN(C(=O)c2ccc3nc(-c4ccccc4)c(-c4ccccc4)nc3c2)CC1 | > 42 µM (inactive) |
| O=C(/C=C/c1ccc(Cl)cc1Cl)Nc1cccc(S(=O)(=O)NC2=NCCCCC2)c1 | > 42 µM (inactive) |
| CCC(C)(C(=O)NC1CCCC1)N(C(=O)c1ccccn1)c1ccc(C)cc1 (configuration not stated) | > 42 µM (inactive) |
| CC(=O)NCCc1nc2cc(NC(=O)c3ccc(F)cc3)ccc2n1C | > 42 µM (inactive) |
| COc1ccc(-c2csc(NC(=O)CCS(=O)(=O)c3ccccc3)n2)c(OC)c1 | > 42 µM (inactive) |
| O=C(COC(=O)c1ccc([N+](=O)[O-])s1)c1ccc[nH]1 | 21 µM |
| O=C(NC(=S)Nc1ccccc1N1CCCC1)c1ccc([N+](=O)[O-])cc1 | > 42 µM (inactive) |
| CCOc1ccc(C(=O)Nc2ccc(N3CCN(C)CC3)cc2)cc1[N+](=O)[O-] | > 42 µM (inactive) |
| O=C(CN1CCN(c2nc(-c3ccccc3)cs2)CC1)NNC(=O)c1ccc(Br)cc1 | > 42 µM (inactive) |
| COc1ccccc1NC(=S)N(Cc1ccccc1)Cc1cccs1 | > 42 µM (inactive) |
| O=S1(=O)CC(N2CCCCC2)C(N2CCCCC2)C1 (configuration not stated) | > 42 µM (inactive) |
| CS(=O)(=O)C1=NSC2=NC(=O)/C(=C\c3ccc(OS(=O)(=O)c4ccccc4)cc3)C(=N)N21 | > 42 µM (inactive) |

| SMILES | AC50 |
| --- | --- |
| O=c1[nH]c(=O)n(C2CCCO2)cc1Br (configuration not stated) | > 42 µM (inactive) |
| COc1cc(SC)ccc1C(=O)N1CCCCCC1 | > 42 µM (inactive) |
| COCCCN1C(=O)c2ccc(C(=O)Nc3ccc(OC)cc3OC)cc2C1=O | > 42 µM (inactive) |
| CCN(CC)c1ccc(N=Cc2c(O)n(Cc3ccccc3)c(=O)[nH]c2=O)cc1 | > 42 µM (inactive) |
| O=C1CN(C(=O)COC(=O)CCNS(=O)(=O)c2ccc(Cl)cc2)c2ccccc2N1 | > 42 µM (inactive) |
| O=C(COC(=O)c1ccc([N+](=O)[O-])o1)Nc1ncc(Cl)cc1Cl | 9.48 µM |
| Cc1ccnc(NC(c2cccnc2)c2ccc3cccnc3c2O)c1 (configuration not stated) | > 42 µM (inactive) |
| CCC(C)[C@H]1COCCS(=O)(=O)N1Cc1ccc(C)cc1 (some centres not stated) | > 42 µM (inactive) |
| CC(C)c1onc(C(=O)N(C)Cc2ccccc2)c1[N+](=O)[O-] | > 42 µM (inactive) |
| O=C(CSCc1ccc(Cl)cc1)N1CCCCC1 | > 42 µM (inactive) |
| CC(C)C(=O)Nc1cccc(-c2nc3ncccc3o2)c1 | > 42 µM (inactive) |
| COc1ccc(C(=O)OCC(=O)c2ccc(C)c(S(=O)(=O)N3CCOCC3)c2)cc1OC | > 42 µM (inactive) |
| CCCc1cc(=O)oc2c3c(c4c(c12)OC(C)(C)C=C4)OC(C)C(C)C3O (configuration not stated) | > 42 µM (inactive) |
| COC(=O)[C@@]12CCCCN1[C@H](c1ccc(-c3cccc(Cl)c3)c(OC)c1)[C@H]1C(=O)N(C)C(=O)[C@H]12 | > 42 µM (inactive) |
| Cc1cc(NC(=O)c2ccc(N3C(=O)CCC3=O)cc2)no1 | > 42 µM (inactive) |
| O=C(Nc1ccc2c(c1)oc1ccccc12)C1CC1 | > 42 µM (inactive) |
| C(=N\N1CCN(C2c3ccccc3-c3ccccc32)CC1)/c1ccncc1 | 13.8 µM |
| CCNc1ccccc(C(=O)/C=C/c2ccc3c(c2)OCO3)c1=O | > 42 µM (inactive) |
| COc1ccccc1N1CCN(C(=O)C2CCN(S(=O)(=O)c3ccc(C)cc3)CC2)CC1 | > 42 µM (inactive) |
| Cc1ccc(N/N=C2/CCCNC2=O)cc1 | > 42 µM (inactive) |
| CCCCCCOc1ccc(N2C(=O)CC(N3CCC(C(=O)OCC)CC3)C2=O)cc1 (configuration not stated) | 4.96 µM |
| COc1cccc(NC(=O)Nc2cc(C(=O)NC(C)C)ccc2N2CC3CC(C2)c2cccc(=O)n2C3)c1 (configuration not stated) | > 42 µM (inactive) |
